What was measured:
[1] = test system: gene expression in BM cells; experiment: Gene expression profiling (Affymetrix GeneChip) of erythroid progenitors; type: cell-based, human
Protocol: BM cells were cultured in CS1 expansion media for 7 days, and then shifted to CS1 differentiation media containing vehicle or 1 μM ACY-957 for 5 days. Total RNA was isolated from cells at day 5 of differentiation using RNeasy Micro Kit with on-column DNase digestion (Qiagen). This experiment was performed in triplicate using cells from three independent donors on separate days to obtain vehicle treated (n = 3) and ACY-957 treated (n = 3) samples for GeneChip analysis. GeneChip sample preparation, hybridization, and data acquisition was performed by the Covance Genomics Laboratory (Seattle, WA) using Affymetrix GeneChip PrimeView™ Human Gene Expression Array according to manufacturer’s protocol. […] For the analysis of HDAC1 or HDAC2 knockdown in erythroblasts, raw gene expression data was downloaded from NCBI GEO website, series GSE22366 [21].
Data analysis was performed using BRB-ArrayTools. GSE60791 and GSE22366 data series were imported and analyzed independently. Raw data CEL files were processed with the robust multi-chip average (RMA) algorithm. Fold changes were derived from the geometric mean of intensity values in each treatment class. In the case of GSE60791, P-values were generated between ACY-957 and vehicle treated samples using a paired t test with random variance model applied. In the case of GSE22366, P-values were generated between luciferase control and HDAC1 or HDAC2 knockdown samples using a two-sample t test with random variance model applied.
Duplicate gene symbols were removed by selecting the probe set with the lowest P-value. Next, these 4 gene sets were appended to the Molecular Signatures Database collection of Chemical and Genetic Perturbations. This database contained approximately 2777 gene sets, each containing at least 15 genes and no more than 10000 genes. Finally, log base 2 mRNA data from ACY-957 or vehicle treated cells was loaded into the publically available GSEA software from the Broad Institute and queried against the database of gene sets described above. ACY-957 phenotype was compared against vehicle phenotype by first collapsing the data set to gene symbols based on maximum probe signal and then using a weighted, signal-to-noise metric for ranking genes. Gene set permutations were performed to generate nominal P-values for each gene set.
We interrogated the mechanism through which HDAC1/2 inhibition induces HBG by performing gene expression profiling on ACY-957 or vehicle treated cells in CS1. Because HDAC inhibition prevented cells from fully upregulating GYPA (Fig 4) we isolated RNA at day 5 of differentiation, a time point prior to the observed differentiation block.

HDAC8 = test system: T1, HDAC8; experiment: In vitro biochemical HDAC enzyme assay; conditions: at concentrations as high as 20 μM
T1 construct: purchased BPS Biosciences
Protocol: (§1) In vitro biochemical assays were performed as described previously. Specifically, drugs were dissolved and diluted in assay buffer (50 mM HEPES, pH 7.4, 100 mM KCl, 0.001% Tween-20, 0.05% BSA, and 20 μM Tris (2-carboxyethyl)phosphine) to 6-fold the final concentration. HDAC enzymes (BPS Biosciences) were diluted to 1.5-fold of the final concentration in assay buffer and pre-incubated with ACY-957 for 24 hours before the addition of the substrate. The amount of substrate (acetyl-lysine tripeptide substrate for HDAC1, HDAC2, HDAC3, and HDAC6 or trifluoroacetyl-lysine tripeptide for HDAC4, HDAC5, HDAC7, HDAC8, and HDAC9) used for each enzyme was equal to the Michaelis constant (Km), as determined by a titration curve. Substrate was diluted in assay buffer to 6-fold the final concentration with 0.3 μM sequencing grade trypsin (Sigma-Aldrich). The substrate/trypsin mix was added to the enzyme/compound mix and the plate was shaken for 5 seconds and then placed into a SpectraMax M5 microtiter plate reader (Molecular Devices). The enzymatic reaction was monitored over 30 minutes for release of […] after deacetylation of the lysine side chain in the peptide substrate, and the linear rate of the reaction was calculated.
(§2) ACY-957 was tested against each individual HDAC in an in vitro biochemical assay as previously described. Aminobenzamides have slow association rate constants, therefore a prolonged pre-incubation time of 24 hours is required to reach equilibrium.

HDAC4 = test system: T2, HDAC4; experiment: In vitro biochemical HDAC enzyme assay; conditions: at concentrations as high as 20 μM
T2 construct: purchased BPS Biosciences
Protocol: as §1, §2

HDAC9 = test system: T3, HDAC9; experiment: In vitro biochemical HDAC enzyme assay; conditions: at concentrations as high as 20 μM
T3 construct: purchased BPS Biosciences
Protocol: as §1, §2

HDAC7 = test system: T4, HDAC7; experiment: In vitro biochemical HDAC enzyme assay; conditions: at concentrations as high as 20 μM
T4 construct: purchased BPS Biosciences
Protocol: as §1, §2

HDAC1 = HDAC1 (Homo sapiens, UniProt Q13547); experiment: In vitro biochemical HDAC enzyme assay; conditions: 24 hours pre-incubation; mean, n = 4
Protocol: as §1, §2

HDAC6 = test system: T5, HDAC6; experiment: In vitro biochemical HDAC enzyme assay; conditions: at concentrations as high as 20 μM
T5 construct: purchased BPS Biosciences
Protocol: as §1, §2

HDAC5 = test system: T6, HDAC5; experiment: In vitro biochemical HDAC enzyme assay; conditions: at concentrations as high as 20 μM
T6 construct: purchased BPS Biosciences
Protocol: as §1, §2

HDAC3 = HDAC3 (Homo sapiens, UniProt O15379); experiment: In vitro biochemical HDAC enzyme assay
Protocol: as §1, §2

[2] = treatment versus control, 1 μM, day 5

Chain of HDAC3 (O15379 whole entry): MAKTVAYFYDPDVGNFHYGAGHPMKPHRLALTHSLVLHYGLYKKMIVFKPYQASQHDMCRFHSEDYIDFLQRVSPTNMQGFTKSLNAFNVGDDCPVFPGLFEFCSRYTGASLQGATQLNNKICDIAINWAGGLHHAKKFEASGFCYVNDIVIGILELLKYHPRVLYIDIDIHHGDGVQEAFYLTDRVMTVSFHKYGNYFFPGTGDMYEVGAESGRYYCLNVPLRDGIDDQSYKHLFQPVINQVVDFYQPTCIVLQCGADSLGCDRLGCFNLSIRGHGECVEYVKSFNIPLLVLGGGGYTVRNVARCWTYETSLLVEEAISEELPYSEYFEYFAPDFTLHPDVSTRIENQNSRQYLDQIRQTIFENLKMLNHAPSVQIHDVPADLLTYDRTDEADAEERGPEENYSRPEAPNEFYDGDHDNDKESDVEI
Chain of HDAC3 (Q9Y618 395-489 partner limits assumed): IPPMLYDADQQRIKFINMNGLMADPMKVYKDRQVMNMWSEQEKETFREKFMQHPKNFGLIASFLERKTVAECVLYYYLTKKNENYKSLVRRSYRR
Chain of HDAC1 (Q13547 whole entry): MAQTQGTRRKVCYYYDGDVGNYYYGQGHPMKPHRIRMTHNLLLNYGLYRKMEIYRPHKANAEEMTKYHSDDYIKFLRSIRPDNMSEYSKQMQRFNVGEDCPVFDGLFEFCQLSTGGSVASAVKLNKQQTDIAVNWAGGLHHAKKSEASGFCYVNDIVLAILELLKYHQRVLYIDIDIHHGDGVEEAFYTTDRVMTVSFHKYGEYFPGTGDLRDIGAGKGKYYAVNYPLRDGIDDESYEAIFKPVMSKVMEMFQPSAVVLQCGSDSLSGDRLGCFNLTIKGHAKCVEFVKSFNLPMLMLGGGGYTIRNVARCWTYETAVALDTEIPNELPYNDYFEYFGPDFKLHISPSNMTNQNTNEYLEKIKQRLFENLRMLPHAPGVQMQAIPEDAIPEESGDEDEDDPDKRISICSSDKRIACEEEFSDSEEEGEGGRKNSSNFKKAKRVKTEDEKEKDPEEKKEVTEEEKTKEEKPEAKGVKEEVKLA

inhibition of HDAC8 (HDAC8): no inhibition
inhibition of HDAC4 (HDAC4): no inhibition
inhibition of HDAC9 (HDAC9): no inhibition
inhibition of HDAC7 (HDAC7): no inhibition
IC50 (HDAC1): 7 nM
inhibition of HDAC6 (HDAC6): no inhibition
inhibition of HDAC5 (HDAC5): no inhibition
IC50 (HDAC3; 24 hours pre-incubation, mean, n = 4): 1300 nM
selectivity for HDAC1/2 over HDAC3 (HDAC3; biochemical assay): approximately 100 fold
Compound: Nc1ccc(-c2cccs2)cc1NC(=O)c1ccc2nc(N3CCNCC3)ccc2c1 [ACY-957]
BCL11A down-regulated ([1]; GeneChip, 1 μM, day 5): 1.3 fold
GATA2 up-regulated ([1]; GeneChip, 1 μM, day 5): 2.8 fold
SOX6 down-regulated ([1]; GeneChip, 1 μM, day 5): 2.5 fold
expression of HBG repressors MYB and KLF1 ([1]; GeneChip, 1 μM, day 5): unaffected
GATA2 induced (abstract) ([1]; gene expression profiling of erythroid progenitors): greater than 3 fold
BCL11A Ratio, candidate gene expression by GeneChip [1, 2]: 0.77
GATA1 Ratio, candidate gene expression by GeneChip [1, 2]: 1.0
GATA2 Ratio, candidate gene expression by GeneChip [1, 2]: 2.8
KLF1 Ratio, candidate gene expression by GeneChip [1, 2]: 0.87
MYB Ratio, candidate gene expression by GeneChip [1, 2]: 1.1
SOX6 Ratio, candidate gene expression by GeneChip [1, 2]: 0.41

— publication PMC4830539, “Chemical Inhibition of Histone Deacetylases 1 and 2 Induces Fetal Hemoglobin through Activation of GATA2” (PLoS ONE, 2016)
